Laboratory results published in patent publication US20090311295A1, “PARTICLES WITH HIGH UNIFORM LOADING OF NANOPARTICLES AND METHODS OF PREPARATION THEREOF” (priority 2006, published 2009).

Experiments:
[1] = Solubility of raw materials and polymer melt mixtures; settings: for MeCl2 Solubility: methylene chloride, Table III; for solubility in organics: organic solvents
[2] = X-ray diffraction (XRD) crystallinity; assay type: physicochemical; settings: crystalline area divided by total scan area
Experimental: X-ray diffraction (XRD) was carried out on the raw materials of PS, PMMA and brilliant blue G. Crystallinity of these materials was calculated by dividing the crystalline area (obtained by subtracting amorphous region) by the total scan area. […] XRD was then run on the melt mixtures of brilliant blue G with PS and PMMA.

| MeCl2 Solubility [1] | solubility in organics [1] | water solubility [1] | XRD % Crystallinity [2] | Molecule |
| --- | --- | --- | --- | --- |
| − | insoluble in most organics | water soluble | 19.1% | Chlorophyll |
| − | insoluble in most organics | water insoluble | 67.1% | [Cu+2].c1ccc2c(c1)-c1nc-2nc2[n-]c(nc3nc(nc4[n-]c(n1)c1ccccc41)-c1ccccc1-3)c1ccccc21 [Copper(II) phthalocyanine] |
| + | slightly soluble in some organics | nearly water insoluble |  | CC1=C(/C=C/C(C)=C/C=C/C(C)=C/C=C/C=C(C)/C=C/C=C(C)/C=C/C2=C(C)CCCC2(C)C)C(C)(C)CCC1 [beta-Carotene, β-carotene] |
| − | insoluble in most organics | very water soluble | 36.4% | O=C1/C(=C2\Nc3ccc(S(=O)(=O)[O-])cc3C2=O)Nc2ccc(S(=O)(=O)[O-])cc21.[Na+].[Na+] [FD&C blue #2] |
|  |  |  | 22.3% | CCOc1ccc(Nc2ccc(/C(=C3C=C/C(=[N+](/CC)Cc4cccc(S(=O)(=O)[O-])c4)C=C/3C)c3ccc(N(CC)Cc4cccc(S(=O)(=O)[O-])c4)cc3C)cc2)cc1.[Na+] [Brillian blue G, Brilliant blue G] |
| − | insoluble in most organics | very water soluble |  | CCN(Cc1cccc(S(=O)(=O)[O-])c1)c1ccc(C(=C2C=CC(=[N+](CC)Cc3cccc(S(=O)(=O)[O-])c3)C=C2)c2ccccc2S(=O)(=O)[O-])cc1.[Na+].[Na+] [FD&C blue #1] |
| − | insoluble in most organics | very water soluble | 24.8% | CC1(C)C(/C=C/C=C/C=C/C=C2\N(CCCCS(=O)(=O)O)c3ccc4ccccc4c3C2(C)C)=[N+](CCCCS(=O)(=O)[O-])c2ccc3ccccc3c21 [Indocyanine green] |
